Experimental findings from ChEMBL document CHEMBL1133305, “Phenyloxazoles and phenylthiazoles as benzamide bioisosteres: synthesis and dopamine receptor binding profiles” (Bioorg Med Chem Lett, 2000) are described below.

Broadly, the Ki is a measure of affinity in units of concentration, obtained from inhibition or displacement.

One test deals with D(1A) dopamine receptor (Bos taurus, UniProt Q95136). The experiment in a line: In vitro displacement of [3H]- SCH 23390 from the dopamine receptor D1 of bovine striatal membrane. (In general: Displacement assays read how much labelled ligand stays bound in the presence of the test substance.)
In the next test the target is T1, D(4) dopamine receptor (Homo sapiens, UniProt P21917).
T1 sequence (P21917 whole entry): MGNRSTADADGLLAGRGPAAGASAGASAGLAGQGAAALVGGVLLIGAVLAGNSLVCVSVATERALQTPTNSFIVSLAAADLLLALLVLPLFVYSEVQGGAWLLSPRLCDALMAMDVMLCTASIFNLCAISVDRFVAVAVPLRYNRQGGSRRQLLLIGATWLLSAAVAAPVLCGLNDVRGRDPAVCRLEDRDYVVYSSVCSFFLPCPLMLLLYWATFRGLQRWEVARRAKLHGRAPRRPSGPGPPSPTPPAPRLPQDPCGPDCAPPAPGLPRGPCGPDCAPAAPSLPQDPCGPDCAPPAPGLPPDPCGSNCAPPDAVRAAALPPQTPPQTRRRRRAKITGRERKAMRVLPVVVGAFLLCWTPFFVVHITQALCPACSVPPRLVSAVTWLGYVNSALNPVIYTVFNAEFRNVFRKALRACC
Kind of test: In vitro displacement of [3H]spiperone from the recombinant human dopamine receptor D4 expressed in CHO cells. It counts as cell-based.

For test [1], the target named is T2, D(2) dopamine receptor (Homo sapiens, UniProt P14416). Kind of test: In vitro displacement of [3H]spiperone from the recombinant human dopamine receptor D2 short form expressed in CHO cells. It counts as cell-based.
Test [2] deals with T2, D(2) dopamine receptor. Kind of test: In vitro displacement of [3H]spiperone from the recombinant human dopamine receptor D2L stably expressed in CHO cells. It counts as cell-based.
A further test addresses D(3) dopamine receptor (Homo sapiens, UniProt P35462). Kind of test: In vitro displacement of [3H]spiperone from the cloned human dopamine receptor D3 stably expressed in CHO cells. It counts as cell-based.

T2 sequence (P14416 whole entry): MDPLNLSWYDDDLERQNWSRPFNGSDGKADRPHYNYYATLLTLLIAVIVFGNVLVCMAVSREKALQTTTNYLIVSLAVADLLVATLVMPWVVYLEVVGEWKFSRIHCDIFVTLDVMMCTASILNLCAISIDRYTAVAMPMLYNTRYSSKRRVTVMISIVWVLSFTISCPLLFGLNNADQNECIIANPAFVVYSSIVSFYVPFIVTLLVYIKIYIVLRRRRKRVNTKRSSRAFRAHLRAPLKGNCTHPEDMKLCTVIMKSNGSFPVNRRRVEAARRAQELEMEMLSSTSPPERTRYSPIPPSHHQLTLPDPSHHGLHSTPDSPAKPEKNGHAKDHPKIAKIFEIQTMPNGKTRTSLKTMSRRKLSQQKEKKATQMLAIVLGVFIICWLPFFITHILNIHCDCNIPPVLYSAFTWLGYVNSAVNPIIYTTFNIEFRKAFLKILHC
D(3) dopamine receptor, sequence (P35462 whole entry): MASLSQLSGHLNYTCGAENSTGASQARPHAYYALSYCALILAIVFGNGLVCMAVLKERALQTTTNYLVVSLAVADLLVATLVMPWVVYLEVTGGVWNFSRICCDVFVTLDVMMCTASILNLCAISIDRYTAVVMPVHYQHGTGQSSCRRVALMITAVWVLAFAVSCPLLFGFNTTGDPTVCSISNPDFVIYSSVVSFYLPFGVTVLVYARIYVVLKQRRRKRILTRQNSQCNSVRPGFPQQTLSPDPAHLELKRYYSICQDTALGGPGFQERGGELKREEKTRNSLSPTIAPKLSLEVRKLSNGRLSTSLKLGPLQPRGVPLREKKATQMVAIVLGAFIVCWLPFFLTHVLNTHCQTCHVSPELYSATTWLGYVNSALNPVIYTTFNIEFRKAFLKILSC
D(1A) dopamine receptor, sequence (Q95136 whole entry): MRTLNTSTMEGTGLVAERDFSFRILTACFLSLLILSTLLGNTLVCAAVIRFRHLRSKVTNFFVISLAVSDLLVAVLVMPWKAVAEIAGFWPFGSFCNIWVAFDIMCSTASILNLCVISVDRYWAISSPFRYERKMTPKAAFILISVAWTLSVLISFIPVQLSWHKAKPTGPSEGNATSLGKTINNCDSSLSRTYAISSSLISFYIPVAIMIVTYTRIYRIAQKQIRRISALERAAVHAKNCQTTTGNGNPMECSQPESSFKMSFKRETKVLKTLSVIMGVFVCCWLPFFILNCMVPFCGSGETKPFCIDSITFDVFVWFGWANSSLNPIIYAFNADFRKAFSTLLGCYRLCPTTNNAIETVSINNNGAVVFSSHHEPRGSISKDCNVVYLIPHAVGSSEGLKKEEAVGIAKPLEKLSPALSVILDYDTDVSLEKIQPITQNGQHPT

Consider `COc1ccc(Br)cc1-c1nc(CNC[C@@H]2CCN(Cc3ccccc3)C2)co1` [listing 1 of 2 here], for which the Ki at D(1A) dopamine receptor is 6750 nM; at D(4) dopamine receptor, 20 nM; on D(2) dopamine receptor [1] it was 210 nM; on D(2) dopamine receptor [2], 510 nM; on D(3) dopamine receptor, 83 nM.

As for `COc1ccc(Br)cc1-c1nc(CN[C@@H]2CCN(Cc3ccccc3)C2)co1` [listing 1 of 2 here], the Ki is 16000 nM on D(1A) dopamine receptor; 510 nM at D(4) dopamine receptor; 6600 nM on D(2) dopamine receptor [1]; 8250 nM at D(2) dopamine receptor [2]; 1850 nM at D(3) dopamine receptor.

As to `COc1ccc(Br)cc1-c1nc(CNCCC2CCN(Cc3ccccc3)C2)co1` (stereo not given), the Ki at D(1A) dopamine receptor came to 6600 nM; on D(4) dopamine receptor, 150 nM; at D(2) dopamine receptor [1], 310 nM; on D(2) dopamine receptor [2], 510 nM; at D(3) dopamine receptor it was 75 nM.

Regarding `COc1ccc(Br)cc1-c1nc(CNC[C@@H]2CCN(Cc3ccccc3)C2)cs1` [listing 1 of 2 here], the Ki is 4000 nM at D(1A) dopamine receptor; 150 nM on D(4) dopamine receptor; 92 nM at D(2) dopamine receptor [1]; 185 nM on D(2) dopamine receptor [2]; 220 nM on D(3) dopamine receptor.

As for `COc1ccc(Br)cc1-c1nc(CNC2CCN(Cc3ccccc3)CC2)co1`, the Ki came out at 12500 nM on D(1A) dopamine receptor; 390 nM on D(4) dopamine receptor; 630 nM on D(2) dopamine receptor [1]; 940 nM on D(2) dopamine receptor [2]; 580 nM at D(3) dopamine receptor.

As to `COc1ccc(Br)cc1-c1nc(CN2CCN(Cc3ccccc3)CC2)cs1`, the Ki stood at 10500 nM at D(1A) dopamine receptor; 370 nM on D(4) dopamine receptor; 85 nM on D(2) dopamine receptor [1]; 210 nM on D(2) dopamine receptor [2]; 640 nM at D(3) dopamine receptor.

For `c1ccc(-c2nc(CN3CCN(c4ccccc4)CC3)co2)cc1`, the Ki turned out to be 11500 nM at D(1A) dopamine receptor; 250 nM at D(4) dopamine receptor; 1750 nM at D(2) dopamine receptor [1]; 3000 nM at D(2) dopamine receptor [2]; 3950 nM at D(3) dopamine receptor.

In the case of `c1ccc(CN2CCC(NCc3csc(-c4ccccc4)n3)CC2)cc1`, the Ki at D(1A) dopamine receptor was determined as 6800 nM; at D(4) dopamine receptor, 53 nM; at D(2) dopamine receptor [1], 13500 nM; on D(2) dopamine receptor [2] it was 23000 nM; on D(3) dopamine receptor, 2300 nM.

Consider `c1ccc(CN2CCC(NCc3coc(-c4ccccc4)n3)CC2)cc1`, for which the Ki at D(1A) dopamine receptor is 30000 nM; on D(4) dopamine receptor, 350 nM; on D(2) dopamine receptor [1] it was 8650 nM; at D(2) dopamine receptor [2] it was 14000 nM; on D(3) dopamine receptor, 6100 nM.

Consider `COc1c(-c2nc(CNC[C@@H]3CCN(Cc4ccccc4)C3)co2)cc(Br)c2ccccc12`, for which the Ki on D(1A) dopamine receptor came to 100000 nM; on D(4) dopamine receptor it was 15500 nM; on D(2) dopamine receptor [1], 17500 nM; at D(2) dopamine receptor [2], 45500 nM; on D(3) dopamine receptor, 5850 nM.

Regarding `COc1ccc(Br)cc1-c1nc(CNC[C@@H]2CCN(Cc3ccccc3)C2)co1` [listing 2 of 2 here], the Ki at D(1A) dopamine receptor worked out at 3500 nM; on D(4) dopamine receptor, 11 nM; at D(2) dopamine receptor [1], 245 nM; on D(2) dopamine receptor [2], 320 nM; at D(3) dopamine receptor it was 65 nM.

Turning to `COc1ccc(Br)cc1-c1nc(CNC2CCN(Cc3ccccc3)CC2)cs1`, the inhibition constant (Ki) at D(1A) dopamine receptor turned out to be 4500 nM; at D(4) dopamine receptor it was 400 nM; at D(2) dopamine receptor [1] it was 105 nM; on D(2) dopamine receptor [2], 195 nM; at D(3) dopamine receptor, 205 nM.

As for `c1ccc(CN2CCN(Cc3coc(-c4ccccc4)n3)CC2)cc1`, the Ki was 72000 nM at D(1A) dopamine receptor; 1450 nM on D(4) dopamine receptor; 21500 nM at D(2) dopamine receptor [1]; 27500 nM at D(2) dopamine receptor [2]; 8400 nM on D(3) dopamine receptor.

`Oc1ccc(Br)cc1-c1nc(CN2CCN(c3ccccc3)CC2)co1`: the Ki at D(1A) dopamine receptor was found to be 17500 nM; on D(4) dopamine receptor it was 580 nM; at D(2) dopamine receptor [1], 4400 nM; on D(2) dopamine receptor [2], 6650 nM; on D(3) dopamine receptor, 7600 nM.

As for `c1ccc(CN2CCN(Cc3csc(-c4ccccc4)n3)CC2)cc1`, the Ki stood at 9200 nM on D(1A) dopamine receptor; 590 nM at D(4) dopamine receptor; 19500 nM on D(2) dopamine receptor [1]; 28000 nM on D(2) dopamine receptor [2]; 5250 nM on D(3) dopamine receptor.

Consider `COc1ccc(Br)cc1-c1nc(CNC[C@@H]2CCN(Cc3ccccc3)C2)cs1` [listing 2 of 2 here], for which the Ki was determined as 4950 nM at D(1A) dopamine receptor; 170 nM on D(4) dopamine receptor; 280 nM on D(2) dopamine receptor [1]; 420 nM on D(2) dopamine receptor [2]; 115 nM on D(3) dopamine receptor.

Turning to `COc1ccc(Br)cc1-c1nc(CN2CCN(c3ccccc3)CC2)co1`, the Ki is 4850 nM on D(1A) dopamine receptor; 370 nM at D(4) dopamine receptor; 330 nM on D(2) dopamine receptor [1]; 690 nM on D(2) dopamine receptor [2]; 660 nM on D(3) dopamine receptor.

Regarding `COc1ccc(Br)cc1-c1nc(CN2CCN(c3ccccc3)CC2)cs1`, the Ki on D(1A) dopamine receptor was 1250 nM; on D(4) dopamine receptor it was 590 nM; at D(2) dopamine receptor [1], 440 nM; at D(2) dopamine receptor [2], 610 nM; on D(3) dopamine receptor, 1190 nM.

As to `c1ccc(-c2nc(CN3CCN(c4ccccc4)CC3)cs2)cc1`, the Ki was determined as 19500 nM at D(1A) dopamine receptor; 450 nM on D(4) dopamine receptor; 1060 nM at D(2) dopamine receptor [1]; 2300 nM on D(2) dopamine receptor [2]; 2050 nM on D(3) dopamine receptor.

Take `COc1ccc(Br)cc1-c1ncc(CNC[C@@H]2CCN(Cc3ccccc3)C2)[nH]1`: the Ki was 8900 nM at D(1A) dopamine receptor; 1110 nM on D(4) dopamine receptor; 2750 nM on D(2) dopamine receptor [1]; 6250 nM on D(2) dopamine receptor [2]; 1300 nM on D(3) dopamine receptor.

Regarding `COc1ccc(Br)cc1-c1nc(CN(C)C[C@@H]2CCN(Cc3ccccc3)C2)co1`, the Ki on D(1A) dopamine receptor came to 5450 nM; on D(4) dopamine receptor it was 650 nM; at D(2) dopamine receptor [1] it was 3250 nM; at D(2) dopamine receptor [2], 3800 nM; at D(3) dopamine receptor it was 1200 nM.

For the compound `COc1ccc(Br)cc1-c1nc(CN2CCN(Cc3ccccc3)CC2)co1`, the Ki at D(1A) dopamine receptor was 15500 nM; on D(4) dopamine receptor it was 710 nM; at D(2) dopamine receptor [1], 790 nM; at D(2) dopamine receptor [2], 1500 nM; at D(3) dopamine receptor it was 1050 nM.

For `COc1ccc(Br)cc1-c1nc(CN[C@@H]2CCN(Cc3ccccc3)C2)co1` [listing 2 of 2 here], the Ki on D(1A) dopamine receptor was 8000 nM; at D(4) dopamine receptor, 39 nM; on D(2) dopamine receptor [1], 2000 nM; at D(2) dopamine receptor [2], 2450 nM; on D(3) dopamine receptor it was 1700 nM.

Take `COc1ccc(Br)cc1-c1nc(CNCC[C@@H]2CCN(Cc3ccccc3)C2)co1`: the Ki amounted to 8950 nM at D(1A) dopamine receptor; 170 nM at D(4) dopamine receptor; 1100 nM on D(2) dopamine receptor [1]; 1070 nM at D(2) dopamine receptor [2]; 120 nM at D(3) dopamine receptor.

Take `c1ccc(CN2CC[C@@H](CNCc3csc(-c4ccccc4)n3)C2)cc1` (stereo in doubt): the Ki on D(1A) dopamine receptor worked out at 13500 nM; at D(4) dopamine receptor (cho), 390 nM; on D(2) dopamine receptor [1] it was 6400 nM; at D(2) dopamine receptor [2], 7950 nM; on D(3) dopamine receptor, 880 nM.

Regarding `c1ccc(CN2CC[C@@H](CNCc3csc(-c4ccccc4)n3)C2)cc1` (stereo in doubt; 4q), the Ki worked out at 8850 nM on D(1A) dopamine receptor; 390 nM at D(4) dopamine receptor; 5050 nM on D(2) dopamine receptor [1]; 7900 nM at D(2) dopamine receptor [2]; 660 nM at D(3) dopamine receptor.
